Where “and” joins values, the source holds several entries; their conditions need not be identical. Identical values can stand only once. Counter-ions that a name gives are not always drawn.

This note sets out measurements from patent US7531545B2, “2-amino-3,4-dihydro-pyrido[3,4-d]pyrimidine derivatives useful as inhibitors of β-secretase (BACE)” (Janssen Pharmaceutica, N.V., priority 2005, dated 2009).

The target of this experiment is human BACE-1 (Homo sapiens, UniProt P56817). The experiment in a line: CEREP BACE Inhibition Assay. The format is biochemical. The following applies: recombinant enzyme; for inhibition at 1 µM: read-out: % Inhibition @ 1.0 μM; for IC50: read-out: IC50. As to the method: More specifically the assay, run at 50 μL in a 96 well plate, evaluated the effect of test compound on the activity of the human BACE-1 quantified by measuring the formation of Mca-S-E-V-N-L-NH2 from […], using a recombinant enzyme. The test compound, reference compound or water (control) were added to a buffer containing 0.09 M sodium acetate (pH 4.5) and 0.25 μg BACE-1. Compound interference with the fluorimetric detection method due to autofluorescence was then checked by measurements at the wavelengths defined to evaluate the enzyme activity. […] For control basal measurement, the substrate was omitted from the reaction mixture. […] The standard inhibitory reference compound was OM99-2, which was tested in each experiment at several concentrations to obtain an inhibition curve from which its IC50 value was calculated.

Setting [1] is: percent inhibition of the control activity.

human BACE-1, sequence (P56817 46-501): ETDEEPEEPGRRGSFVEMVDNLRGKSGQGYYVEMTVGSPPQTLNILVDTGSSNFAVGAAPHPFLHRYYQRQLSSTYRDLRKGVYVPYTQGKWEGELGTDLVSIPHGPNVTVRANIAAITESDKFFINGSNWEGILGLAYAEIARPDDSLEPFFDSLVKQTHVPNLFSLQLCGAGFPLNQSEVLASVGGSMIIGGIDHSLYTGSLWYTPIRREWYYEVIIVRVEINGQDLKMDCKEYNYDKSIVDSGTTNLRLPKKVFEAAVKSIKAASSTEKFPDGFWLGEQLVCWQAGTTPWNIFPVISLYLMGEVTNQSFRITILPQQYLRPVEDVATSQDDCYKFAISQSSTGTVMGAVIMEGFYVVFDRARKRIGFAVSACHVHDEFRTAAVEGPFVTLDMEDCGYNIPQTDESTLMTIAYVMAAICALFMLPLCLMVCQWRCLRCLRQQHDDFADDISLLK

In the case of `CC(C)(C)OC[C@H](CN)NC(=O)CC[C@@H](C1CCCCC1)N1Cc2cc(Oc3ccccc3)ncc2N=C1N` [Compound 168, N-(2-Amino-1-tert-butoxymethyl-ethyl)-4-(2-amino-6-phenoxy-4H-pyrido[3,4-d]pyrimidin-3-yl)-4-cyclohexyl-butyramide], the inhibition (in general, the drop in the measured response relative to a control, in per cent) at 1 µM under setting [1] was found to be 101%.

Turning to `CN(C(=O)CCCN1Cc2cc(Oc3ccccc3)ncc2N=C1N)C1CCCCC1` [Compound 196, 4-(2-Amino-6-phenoxy-4H-pyrido[3,4-d]pyrimidin-3-yl)-N-cyclohexyl-N-methyl-butyramide], under setting [1], the inhibition at 1 µM turned out to be 34%.

As for `CC(C)(C)CCNCC[C@@H](C1CCCCC1)N1Cc2cc(Oc3ccccc3)ncc2N=C1N` [Compound 216], the IC50 (as a rule, the concentration that inhibits the measured activity by half) is 87 nM and 120 nM. In addition, under setting [1], the “% Inhibition @ 1.0 μM” value is 95% and the inhibition at 1 µM was 96%.

With `NC1=Nc2cnc(Oc3ccccc3)cc2CN1[C@@H](CCC(=O)NCCN1CCOCC1)C1CCCCC1` [Compound 116], the half-maximal inhibitory concentration (IC50) stood at 630 nM. Also, the inhibition at 1 µM under setting [1] was found to be 54%.

For the compound `CC(C)(C)OCCN(Cc1ccsc1)C(=O)CC[C@@H](C1CCCCC1)N1Cc2cc(Oc3ccccc3)ncc2N=C1N` [Compound 156], the IC50 came out at 100 nM. Also, the inhibition at 1 µM under setting [1] came to 102%.

Take `CC(C)(C)OC[C@@H](NC(=O)CC[C@@H](C1CCCCC1)N1Cc2cc(Oc3ccccc3)ncc2N=C1N)C(N)=O` [Compound 111]: the IC50 was 110 nM. The inhibition at 1 µM under setting [1] amounted to 100%.

On to `COC(=O)[C@@H](COC(C)(C)C)NC(=O)CC[C@@H](C1CCCCC1)N1Cc2cc(Oc3ccccc3)ncc2N=C1N` [Compound 63, 2-[4-(2-Amino-6-phenoxy-4H-pyrido[3,4-d]pyrimidin-3-yl)-4-(S)-cyclohexyl-butyryl-(R)-amino]-3-tert-butoxy-propionic acid methyl ester], for which the IC50 was determined as 190 nM. Moreover, the inhibition at 0.3 µM under setting [1] was 94%.

For the compound `CC(C)(C)OC[C@H](CN1CCOCC1)NC(=O)CC[C@@H](C1CCCCC1)N1Cc2cc(Oc3ccccc3)ncc2N=C1N` [Compound 102, 4-(2-Amino-6-phenoxy-4H-pyrido[3,4-d]pyrimidin-3-yl)-N-(2-(R)-tert-butoxy-1-morpholin-4-ylmethyl-ethyl)-4-(S)-cyclohexyl-butyramide], the 50% inhibitory concentration (IC50) was 460 nM. Besides, the inhibition at 0.3 µM under setting [1] turned out to be 55%.

For the compound `CC(C)[C@H](CCC(=O)OCc1ccccc1)N1Cc2cc(Oc3ccccc3)ncc2N=C1N` [Compound 231, 4-(2-Amino-6-phenoxy-4H-pyrido[3,4-d]pyrimidin-3-yl)-5-methyl-hexanoic acid benzyl ester], the IC50 was 130 nM. For the same compound, the inhibition at 1 µM under setting [1] was determined as 97%.

On to `CN(CCc1ccccc1)C(=O)CC[C@@H](C1CCCCC1)N1Cc2cc(Oc3ccccc3)ncc2N=C1N` [Compound 122, 4-(2-Amino-6-phenoxy-4H-pyrido[3,4-d]pyrimidin-3-yl)-4-(S)-cyclohexyl-N-methyl-N-phenethyl-butyramide], for which the inhibition at 1 µM under setting [1] is 97%.

For `CC(C)(C)c1cn(C[C@@H](C2CCCCC2)N2Cc3cc(Oc4ccccc4)ncc3N=C2NO)nn1` [Compound 246, N-{3-[2-(4-tert-Butyl-[1,2,3]triazol-1-yl)-1-(R)-cyclohexyl-ethyl]-6-phenoxy-3,4-dihydro-pyrido[3,4-d]pyrimidin-2-yl}-hydroxylamine], for the setting “10.0 μM, percent inhibition of the control activity”, the inhibition at 10 µM was found to be 94%.

On to `CC(C)[C@H](CCC(=O)N[C@@H](COC(C)(C)C)c1nnnn1Cc1ccccc1)N1Cc2cc(Oc3ccccc3)ncc2N=C1N` [Compound 95], for which the 50% inhibitory concentration (IC50) amounted to 210 nM. Further, the inhibition at 0.3 µM under setting [1] was 86%.

Consider `CC(C)CN(CCC[C@@H](C1CCCCC1)N1Cc2cc(Oc3ccccc3)ncc2N=C1N)CCN1CCOCC1` [Compound 192], for which the IC50 was determined as 73 nM. Moreover, the inhibition at 1 µM under setting [1] is 101%.

Regarding `NC1=Nc2cnc(Oc3ccccc3)cc2CN1[C@@H](CCC(=O)N1CCC(c2ccccc2)CC1)C1CCCCC1` [Compound 149], the half-maximal inhibitory concentration (IC50) was determined as 740 nM. Also, under setting [1], the inhibition at 1 µM amounted to 66%.

Turning to `CC(C)(C)OCCN(Cc1ccccn1)C(=O)CC[C@@H](C1CCCCC1)N1Cc2cc(Oc3ccccc3)ncc2N=C1N` [Compound 155], the IC50 worked out at 84 nM. Further, the inhibition at 1 µM under setting [1] was 100%.

As for `C[C@@H](OCc1ccccc1)[C@H](CCC(=O)N(CCC(C)(C)C)Cc1ccncc1)N1Cc2cc(Oc3ccccc3)ncc2N=C1N` [Compound 185, 4-(S)-(2-Amino-6-phenoxy-4H-pyrido[3,4-d]pyrimidin-3-yl)-5-(R)-benzyloxy-hexanoic acid (3,3-dimethyl-butyl)-pyridin-4-ylmethyl-amide], the IC50 amounted to 270 nM. Further, under setting [1], the inhibition at 1 µM is 85%.

Turning to `CC(C)(C)OCCN(Cc1ccccn1)C(=O)CC[C@@H](C1CCCCC1)N1Cc2cc(Oc3ccccc3)ncc2N=C1N` [Compound 162], the concentration for half-maximal inhibition (IC50) came to 90 nM. In addition, under setting [1], the “% Inhibition @ 1.0 μM” value stood at 99%.

For the compound `CC(C)(C)CNC(=O)CC[C@@H](C1CCCCC1)N1Cc2cc(Oc3ccccc3)ncc2N=C1N` [Compound 160], the IC50 stood at 66 nM. Also, the “% Inhibition @ 1.0 μM” value under setting [1] worked out at 101%.

Turning to `CC(C)(C)CCNC(=O)C[C@@H](C1CCCCC1)N1Cc2cc(Oc3ccccc3)ncc2N=C1N` [Compound 202, 3-(2-Amino-6-phenoxy-4H-pyrido[3,4-d]pyrimidin-3-yl)-3(S)-cyclohexyl-N-(3,3-dimethyl-butyl)-propionamide hydrochloride salt], the IC50 was found to be 220 nM. For the same compound, where the note is “percent inhibition of the control activity, hydrochloride salt”, the “% Inhibition @ 1.0 μM” value came to 73%. Under setting [1], the inhibition at 1 µM is 88%.

In the case of `NC1=Nc2cnc(Oc3ccccc3)cc2CN1[C@@H](CCC(=O)N1CCCC[C@H]1C(=O)O)C1CCCCC1` [Compound 91], the IC50 came to 340 nM. The inhibition at 0.3 µM under setting [1] is 70%.

In the case of `C[C@@H](CO)N(CCC(C)(C)C)C(=O)CC[C@@H](C1CCCCC1)N1Cc2cc(Oc3ccccc3)ncc2N=C1N` [Compound 139], the concentration for half-maximal inhibition (IC50) was determined as 200 nM. The inhibition at 1 µM under setting [1] is 94%.

Consider `Cn1ccnc1CN(C(=O)CC[C@@H](C1CCCCC1)N1Cc2cc(Oc3ccccc3)ncc2N=C1N)C1CCCCC1` [Compound 83], for which the IC50 amounted to 90 nM. For the same compound, the inhibition at 1 µM under setting [1] is 99%.

Consider `CC(C)(C)CNCC[C@@H](C1CCCCC1)N1Cc2cc(Oc3ccccc3)ncc2N=C1N` [Compound 214], for which the IC50 is 930 nM and 1000 nM. Moreover, under setting [1], the “% Inhibition @ 1.0 μM” value amounted to 53% and the inhibition at 1 µM worked out at 57%.

Take `CC(C)(C)OC[C@@H](NC(=O)CC[C@@H](C1CCCCC1)N1Cc2cc(Oc3ccccc3)ncc2N=C1N)C(=O)N1CCCCC1` [Compound 100]: the IC50 worked out at 110 nM. Further, under setting [1], the inhibition at 0.3 µM was 93%.

Consider `CC(C)(CO)NC(=O)CC[C@@H](C1CCCCC1)N1Cc2cc(Oc3ccccc3)ncc2N=C1N` [Compound 180], for which the IC50 was 91 nM. For the same compound, the inhibition at 1 µM under setting [1] was found to be 99%.

As to `CC(C)(C)OC[C@H](CN)NCCC[C@@H](C1CCCCC1)N1Cc2cc(Oc3ccccc3)ncc2N=C1N` [Compound 167, N^2-[4-(2-Amino-6-phenoxy-4H-pyrido[3,4-d]pyrimidin-3-yl)-4-cyclohexyl-butyl]-3-tert-butoxy-propane-1,2-diamine], the half-maximal inhibitory concentration (IC50) was determined as 520 nM. The inhibition at 1 µM under setting [1] was found to be 82%.

For the compound `CN(C(=O)CC[C@@H](C1CCCCC1)N1Cc2cc(Oc3ccccc3)ncc2N=C1N)[C@@H](COC(C)(C)C)C(=O)O` [Compound 66], the half-inhibitory concentration (IC50) was found to be 260 nM. For the same compound, the inhibition at 0.3 µM under setting [1] was determined as 96%.

Turning to `COC(=O)[C@H](COCc1ccccc1)N(C)C(=O)CC[C@@H](C1CCOCC1)N1Cc2cc(Oc3ccccc3)ncc2N=C1N` [Compound 56], the 50% inhibitory concentration (IC50) was 75 nM. Besides, the inhibition at 0.3 µM under setting [1] amounted to 93%.

As to `CC(C)(C)CCN(Cc1ccncc1)C(=O)CC[C@@H](C1CCCCC1)N1Cc2cc(Oc3ccccc3)ncc2N=C1N` [Compound 137], the IC50 came out at 170 nM. Moreover, under setting [1], the inhibition at 1 µM was 101%.

Consider `CC(C)C(COCC1CC(CC(C)(C)C)=NO1)N1Cc2cc(Oc3ccccc3)ncc2N=C1N` (stereo not drawn) [Compound 238], for which the half-maximal inhibitory concentration (IC50) was 540 nM. Further, under setting [1], the inhibition at 1 µM came to 72%.

On to `C[C@@H](O)[C@H](CCC(=O)N(C)C1CCCCC1)N1Cc2cc(Oc3ccccc3)ncc2N=C1N` [Compound 177], for which the 50% inhibitory concentration (IC50) was 320 nM. The inhibition at 1 µM under setting [1] is 80%.

In the case of `CC(C)[C@H](CCC(=O)N[C@H](C)CO)N1Cc2cc(Oc3ccccc3)ncc2N=C1N` [Compound 175], the IC50 turned out to be 97 nM. The inhibition at 1 µM under setting [1] came out at 93%.

`NC1=Nc2cnc(Oc3ccccc3)cc2CN1[C@@H](CCC(=O)NCC1CC1)C1CCCCC1` [Compound 212]: the IC50 was determined as 76 nM. The inhibition at 1 µM under setting [1] was determined as 99%.

In the case of `CC(C)(C)OCCN(Cc1ccc(F)cc1)C(=O)CC[C@@H](C1CCCCC1)N1Cc2cc(Oc3ccccc3)ncc2N=C1N` [Compound 158], the 50% inhibitory concentration (IC50) is 130 nM. The inhibition at 1 µM under setting [1] is 102%.

With `CC(C)CN(CCN1CCOCC1)C(=O)CC[C@@H](C1CCCCC1)N1Cc2cc(Oc3ccccc3)ncc2N=C1N` [Compound 189], the IC50 was found to be 140 nM. For the same compound, the inhibition at 1 µM under setting [1] was 99%.

Consider `CC(C)(C)OC[C@H](CO)NC(=O)CC[C@@H](C1CCCCC1)N1Cc2cc(Oc3ccccc3)ccc2N=C1N` [Compound 107, 4-(2-Amino-6-phenoxy-4H-quinazolin-3-yl)-N-(1-(S)-tert-butoxymethyl-2-hydroxy-ethyl)-4-(S)-cyclohexyl-butyramide], for which the inhibition at 0.3 µM under setting [1] worked out at 87%.

Take `CC(C)(CO)CNC(=O)CC[C@@H](C1CCCCC1)N1Cc2cc(Oc3ccccc3)ncc2N=C1N` [Compound 179]: the IC50 was found to be 81 nM. For the same compound, under setting [1], the inhibition at 1 µM was 100%.
